Reference: patent US20180193361A1, “GUT ANTI-INFLAMMATORY AGENTS FOR REGULATION OF HIGH BLOOD GLUCOSE LEVELS” (UNIVERSITY HEALTH NETWORK, priority 2015, published 2018)

Experiments:
[1] = system: intestinal epithelial barrier; assay: Gut permeability assay (FD4); type: in vivo, mice; conditions: HFD vs HFD 5-ASA, 12-16 weeks of diet, 4 hours after gavage
Protocol: We measured gut permeability in overnight fasted mice 4 hours after oral gavage with 0.4 mg/g of FITC-conjugated dextran (Sigma) as described (Dong et al., 2014).

[2] = system: gluconeogenesis enzyme and adipogenesis-related genes; assay: q-PCR of gluconeogenesis and adipogenesis genes, HFD or HFD 5-ASA mice; type: in vivo
Text: We extracted total RNA from isolated or cultured cells using a RNeasy Mini Kit (Qiagen), and for subcutaneous adipose tissue (SAT) and VAT we used a RNeasy Lipid Extraction kit (Qiagen). We reverse-transcribed the RNA by random primers with M-MLV (Invitrogen). We performed q-PCR with a 7900HT PCR system (Applied Biosystems) using SYBR® Green master mix reagent (Applied Biosystems). We assessed expression of adipocyte P2 (aP2), CCAAT/enhancer-binding protein-α (CEBPα), Peroxisome proliferator-activated receptor-γ (PPARγ), and sterol regulatory element-binding protein (SREBP) cDNA. […] We calculated relative fold changes in gene expression normalized to 18s or GAPDH by the ΔΔCT method using the equation 2-ΔΔCT. The results are shown as fold changes compared to the control group.

HFD-fed C57BL/6 mice = assay: Metabolic studies, mice fed HFD or HFD 5-ASA from 6 weeks of age (preventative); type: in vivo
Protocol: Mice. Mice were fed either NCD (15 kcal % fat) or HFD (Research Diets, 60 kcal % fat, irradiated) starting at 6 weeks of age. All studies were performed under the approval of Animal User Protocols by the Animal Care Committee at the University Health Network. Mice were maintained in a pathogen-free, temperature-controlled environment on a 12-hour light and dark cycle. All mice used in comparative studies were male, age-matched, and litter mates where possible. […] We confirmed T cell-specific floxing of the PPARγ gene in Lck-Cre+ PPARγfl/fl mice by qPCR with a minimum of at least 90% reduction in PPARγ expression. […] We measured body weights, GTTs, ITTs, serum insulin, and fat cell diameter as previously described (Winer et al., 2009a). All GTTs were performed with a 1.5 g/kg glucose i.p. injection unless indicated otherwise. We fixed VAT, colons and small bowel ileums, from mice for 48 h in 10% buffered formalin before processing and hematoxylin/eosin staining. We enumerated crown-like structures (CLSs) in VAT by counting the number of adipocytes completely surrounded by immune cells identified on hematoxylin/eosin staining per 100× low power field. Analysis of histochemical stains was performed in a blinded fashion by two certified pathologists (S.W. and D.W.).

PPARγ = molecular target: T1, PPARγ (Mus musculus, UniProt P37238); assay: PPARγ activity assay in small bowel T cell nuclear extracts; type: in vivo; conditions: purified small bowel T cells, mice fed HFD 5-ASA vs control HFD
T1 construct: from tissue; host or cells: purified small bowel T cells of HFD or HFD 5-ASA-fed mice (nuclear extracts)
Text: We measured PPARγ functional activity in T cell nuclear extracts using a PPARγ transcription factor binding assay following vendor's instructions (ThermoScientific and Cayman Chemical Company). This ELISA-based assay is precoated with dsDNA containing the peroxisome proliferator response element (PPRE). PPARγ in the isolated nuclear extracts bind to PPRE. As per vendor's recommendations, this assay is specific to PPARγ and not to other PPARs (i.e., α or δ).

Beta7null mice = assay: Metabolic studies, Beta7null mice on HFD 5-ASA; type: in vivo; conditions: HFD vs HFD 5-ASA, 12 weeks
Protocol: Mice. Mice were fed either NCD (15 kcal % fat) or HFD (Research Diets, 60 kcal % fat, irradiated) starting at 6 weeks of age. All studies were performed under the approval of Animal User Protocols by the Animal Care Committee at the University Health Network. Mice were maintained in a pathogen-free, temperature-controlled environment on a 12-hour light and dark cycle. All mice used in comparative studies were male, age-matched, and litter mates where possible.
We measured body weights, GTTs, ITTs, serum insulin, and fat cell diameter as previously described (Winer et al., 2009a). All GTTs were performed with a 1.5 g/kg glucose i.p. injection unless indicated otherwise.

[3] = system: small bowel dendritic cells; assay: DC-T cell co-culture, 5-ASA pre-treated small bowel dendritic cells with OT-II T cells; type: cell-based, mice; conditions: DCs pre-treated with 0.1 or 1.0 mM 5-ASA 24 hours, OVA323-339 peptide, 48 hours
Protocol: To measure the effect of IFNγ on tight-junction gene expression, we treated MODE-K cells with recombinant mouse IFNγ (Biolegend). We purified bulk dendritic cells and T cells from murine small bowels and spleens using a negative selection DC or T cell isolation kit (Stem Cell Technologies). We plated T cells at 5×10^5 cells/well with plate-bound anti-CD3/CD28 (1 μg/ml, Biolegend). […] We collected supernatants for cytokine measurements after 72 hour incubation. […] After 24 hours, we washed the cells with PBS and co-cultured them (1×10^4 cells/well) with OVA323-339 peptide and OT-II splenic or small bowel T cells (5×10^4 cells/well) for 48 hours. Supernatants were collected at 48 hours for cytokine measurement.

[4] = HFD vs HFD 5-ASA 1500 mg/kg/day in diet, after 12-14 weeks
[5] = HFD vs HFD 5-ASA 1500 mg/kg/day, 14 weeks

T1 sequence (P37238 whole entry): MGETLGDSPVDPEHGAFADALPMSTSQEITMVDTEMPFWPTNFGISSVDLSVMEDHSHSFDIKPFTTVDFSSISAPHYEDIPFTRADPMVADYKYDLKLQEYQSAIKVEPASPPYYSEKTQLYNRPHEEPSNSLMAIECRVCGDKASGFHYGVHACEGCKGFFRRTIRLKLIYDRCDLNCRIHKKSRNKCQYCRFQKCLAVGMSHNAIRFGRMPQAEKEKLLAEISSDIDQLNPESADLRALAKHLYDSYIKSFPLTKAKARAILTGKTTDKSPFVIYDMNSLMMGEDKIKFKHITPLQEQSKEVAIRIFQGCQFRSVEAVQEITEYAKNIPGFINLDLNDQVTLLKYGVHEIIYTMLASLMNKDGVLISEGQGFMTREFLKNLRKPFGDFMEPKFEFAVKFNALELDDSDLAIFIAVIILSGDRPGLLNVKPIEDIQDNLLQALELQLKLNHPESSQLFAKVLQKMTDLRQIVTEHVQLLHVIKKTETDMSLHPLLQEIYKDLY

Which results are given for `Nc1ccc(O)c(C(=O)O)c1` [5-ASA, 5-aminosalicylic acid]?
intestinal epithelial barrier permeability (plasma FD4) [1]: significant improvements; gluconeogenesis enzyme gene expression ([2]; HFD vs HFD 5-ASA 1500 mg/kg/day): could not detect significant changes; expression of adipogenesis-related genes ([2]; VAT or SAT, HFD 5-ASA relative to HFD, 18 weeks of diet): no effects; glucose tolerance (HFD-fed C57BL/6 mice; 5-ASA dose range 150 mg/kg/day up to 1500 mg/kg/day in mice): beneficial effects; liver steatosis (HFD-fed C57BL/6 mice; HFD vs HFD 5-ASA 1500 mg/kg/day in diet): reduced; VAT weight (HFD-fed C57BL/6 mice; [4]): no significant difference; adipocyte size (HFD-fed C57BL/6 mice; [4]): no significant difference; body weight (HFD-fed C57BL/6 mice; [4]): no significant difference; number of crown-like structures in VAT (HFD-fed C57BL/6 mice; [4]): no significant difference; organ weights (HFD-fed C57BL/6 mice; [4]): no significant difference; fasting glucose (HFD-fed C57BL/6 mice; [5]): significant improvements; fasting insulin (HFD-fed C57BL/6 mice; [5]): significant improvements; glucose tolerance (GTT) (HFD-fed C57BL/6 mice; [5]): significant improvements; insulin tolerance (ITT) (HFD-fed C57BL/6 mice; [5]): significant improvements; effects on metabolic disease (GTT, ITT) (HFD-fed C57BL/6 mice; lower dose 150 mg/kg/day in HFD, 24 weeks): beneficial effects; PPARγ functional activity (PPARγ): increased; IR (Beta7null mice): no major effects; glucose tolerance (Beta7null mice): no major effects; IFNγ levels from OT-II CD4+ T cells [3]: reduced
